Test results from the NIST ThermoML archive (doi:10.1016/j.jct.2016.12.021).
± gives the expanded uncertainty stated by the source.

Conditions: Liquid, Closed cell (Static) method

| Compound | vapor or sublimation pressure (293.18 K) [kPa] | vapor or sublimation pressure (298.15 K) [kPa] | vapor or sublimation pressure (313.15 K) [kPa] | vapor or sublimation pressure (323.15 K) [kPa] | vapor or sublimation pressure (353.15 K) [kPa] |
| --- | --- | --- | --- | --- | --- |
| CCC [propane] | 836.8 ± 2.4 | 950.8 ± 2.8 | 1380.1 ± 10 | 1713 ± 4.5 | 3135.4 ± 6.2 |
| FC(F)F [trifluoromethane] | 4171.7 ± 11 | 4709.3 ± 12 | – | – | – |
